Source: patent US20080227855A1, “Solid Dispersion of Hydrophobic Bioactive” (priority 2005, published 2008)
Values belong to the molecule of their own block, whether it stands above or below them.

Columns and labels:
[1] = XRPD analysis of crystallinity (amorphous stability) of spray dried dispersions on storage; type: physicochemical; conditions: stored at room temperature under vacuum (FIG. 8)
Description: All dispersions were spray dried using a Niro SD spray dryer connected to a nitrogen generator.
Solutions for dispersions were prepared by dissolving griseofulvin, a major excipient (PVP) and a minor excipient in an acetone water co-solvent system. To ensure homogeneity, the dispersions were allowed to mix for eight hours before the dispersion was spray dried using a Niro SD system under nitrogen conditions with an inlet temperature of 65° C. and an outlet temperature of 45° C. The feed rate was around 15% of maximum and the nitrogen flow rates were 20 kg/hr and 2 kg/hr for the drying and atomization rates respectively.
The samples were then stored under constant vacuum for 24 hours to allow for the removal of solvent before being transferred to the required conditions.
A Philips PW37010 X-ray Powder Diffractometer (Philips, Cambridge, UK) was used to analyse the samples for crystallization, with a sample XRPD scans shown in FIGS. 1a and 1b.
This was compressed to produce a flat surface before being loaded into the XRPD. […]
Pure crystalline griseofulvin or flavanone was subjected to the same methodology to produce a standard XRPD scan. A number of peaks were selected from each of these standards to produce a 100% crystalline value expressed as X-ray count/°2Θ these were then compared with the area under the peaks of the dispersions to produce percentage crystallinity values.

[2] = Dissolution, USP paddle method; type: physicochemical; conditions: pH6.8 buffer at 37 C, 100 rpm (FIG. 11)
Description: Dispersions were prepared as described above containing Gris:PVP 1:1; Gris:PHPMA:PVP 2.5:1.25:1.25, and compared to Gris spray dried without polymer and crystalline Gris. Dissolution data were prepared by placing a small amount of sample in a hard gelatine capsule and following dissolution in pH6.8 buffer at 37 C (with added surfactant if dispersion was required), using a USP paddle method.

[3] = griseofulvin dispersed in PVP (high Tg polymer); cited from earlier work
[4] = indomethacin with PVP, hydrogen bonding; cited from earlier work

- crystallinity by XRPD ([1]; Flavanone dispersed with PVP): near completely crystalline
- crystallinity by XRPD ([1]; Flavanone dispersed with a combination of PHPMA and PVP): only partial crystallinity
SMILES: O=C1CC(c2ccccc2)Oc2ccccc21 (centres unmarked) [Flavanone]

- dissolution [2]: slow dissolution
SMILES: COC1=CC(=O)C[C@@H](C)[C@]12Oc1c(Cl)c(OC)cc(OC)c1C2=O [griseofulvin, Griseofulvin]
- crystallisation of drug dispersed in polymer [3]: relatively rapid crystallisation

SMILES: COc1ccc2c(c1)c(CC(=O)O)c(C)n2C(=O)c1ccc(Cl)cc1 [Indomethacin]
- amorphous stability [4]: above that expected on the basis of glass transition temperature alone
